Data from patent publication US20120029031A1, “METADOXINE FOR USE AS INHIBITOR OF HEPATIC FIBROSIS” (LABORATORI BALDACCI SPA, priority 2009, published 2012).

Tested on: immortalized human fibroblasts
Test: Proliferation of immortalized human fibroblasts (MTT, Mosmann method)
Type: cell-based
Conditions: MTT O.D. as percent of control; tested range 10^−11M to 10^−3M; measured up to 120 h, treatments repeated every 24 h
Protocol: The methods used allow evaluating the effect of substances provided with potential antifibrotic activity on the proliferation of fibroblasts.
A line of immortalized human fibroblasts was used, maintained in a culture in a suitable medium.
In order to carry out the proliferation experiments, the fibroblasts were detached from the flask by means of trypsinization, counted and distributed on 96-well flat-bottom plates at the concentration of 2000 cells/100 μl medium.
Scalar concentrations of metadoxine were added (range of concentration from 10^−11M to 10^−3M).
The plates were maintained in CO2 incubator at 37° C. The proliferation of the cells was measured at 24 h intervals up to 120 h by using the Mosmann method (10), based on the spectrophotometer determination of the conversion of MTT [3-(4,5 dimethylthiazole-2-yl)-2-5 diphenyltetrazolium bromide] to its blue reduction product, formazan, by mitochondrial enzymes of the metabolically active cells.
The optical densities (O.D.) were determined by means of the Titertek Multiscan (Flow) spectrophotometer with 540 nm filter.
The O.D.s of the samples are expressed as percentages of the samples with respect to the control group.

## Cc1ncc(CO)c(CO)c1O.O=C1CC[C@@H](C(=O)O)N1 [Metadoxine, Pyridoxol L-2-pyrrolidone-5-carboxylate]
  concentration at which metadoxine inhibits the fibrogenic activity / growth of fibroblasts: 10^−5 M
